Patent US20250230193A1, “CYCLIC COMPOUND HAVING SELECTIVE KRAS INHIBITORY EFFECT ON HRAS AND NRAS” (CHUGAI SEIYAKU KABUSHIKI KAISHA, priority 2022, published 2025)

Experiments:
[1] = biological target: GDP-bound NRAS wild-type protein (Homo sapiens, UniProt P01111); assay: Binding to NRAS by surface plasmon resonance (SPR), Single Cycle Kinetics; conditions: KD ratio NRAS/KRAS, class symbols
[2] = biological target: GDP-bound HRAS wild-type protein (Homo sapiens, UniProt P01112); assay: Binding to HRAS by surface plasmon resonance (SPR), Single Cycle Kinetics; conditions: KD ratio HRAS/KRAS, class symbols
Chain of GDP-bound HRAS wild-type protein (P01112 whole entry): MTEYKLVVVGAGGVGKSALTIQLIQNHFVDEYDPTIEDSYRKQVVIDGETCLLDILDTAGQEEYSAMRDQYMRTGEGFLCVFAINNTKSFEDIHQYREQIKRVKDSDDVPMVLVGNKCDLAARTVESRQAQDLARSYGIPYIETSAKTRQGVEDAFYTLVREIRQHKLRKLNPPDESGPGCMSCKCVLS

Chain of GDP-bound NRAS wild-type protein (P01111 whole entry): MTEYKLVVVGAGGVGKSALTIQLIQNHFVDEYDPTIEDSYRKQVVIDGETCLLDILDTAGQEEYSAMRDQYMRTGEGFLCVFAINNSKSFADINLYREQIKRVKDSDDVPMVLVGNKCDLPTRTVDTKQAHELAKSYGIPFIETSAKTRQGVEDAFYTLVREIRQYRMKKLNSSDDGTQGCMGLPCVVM

SMILES	NRAS/KRAS (ratio of KD value with respect to GDP-bound NRAS wild-type protein to KD value with respect to KRAS) [1]	HRAS/KRAS (ratio of KD value with respect to GDP-bound HRAS wild-type protein to KD value with respect to KRAS) [2]
CCC[C@H]1C(=O)N[C@@H]([C@@H](C)CC)C(=O)N(C)CC(=O)N(C)[C@H]2C/C=C\CCN(C2=O)[C@@H](Cc2ccc(C(F)(F)F)cc2)C(=O)N(C)CC(=O)N[C@@H](CCc2ccc3c(C)c(C)n(C)c3c2)C(=O)N2C[C@H](OCC)C[C@H]2C(=O)NC2(CC(C)(C)C2)C(=O)N(C)[C@@H](C(CC)CC)C(=O)N(C)[C@H](C(=O)N(C)C)CC(=O)N1C [PP2904]	AA (a compound having 20 or more is denoted as AA)	A (a compound having 10 or more and less than 20 is denoted as A)
C#CC[C@H]1C(=O)N[C@@H]([C@@H](C)CC)C(=O)N(C)CC(=O)N(C)[C@H]2C/C=C\CCN(C2=O)[C@@H](Cc2ccc(C(F)(F)F)cc2)C(=O)N(C)CC(=O)N[C@@H](CCc2ccc(C(F)(F)F)c(OC)c2)C(=O)N2CCOC[C@H]2C(=O)NC2(CC(C)(C)C2)C(=O)N(C)[C@@H](C2CCCC2)C(=O)N(C)[C@H](C(=O)N(C)C)CC(=O)N1C [PP2905]	AA (a compound having 20 or more is denoted as AA)	A (a compound having 10 or more and less than 20 is denoted as A)
CCC[C@H]1C(=O)N[C@@H]([C@@H](C)CC)C(=O)N(C)CC(=O)N(C)[C@H]2C/C=C\CCN(C2=O)[C@@H](Cc2ccc(C)cc2)C(=O)N(C)CC(=O)N[C@@H](CCc2ccc3c(C)c(C)n(C)c3c2)C(=O)N2C[C@H](OCC)C[C@H]2C(=O)NC2(CC(C)(C)C2)C(=O)N(C)[C@@H](C(CC)CC)C(=O)N(C)[C@H](C(=O)N(C)C)CC(=O)N1C [PP2906]	A (a compound having 10 or more and less than 20 is denoted as A)	A (a compound having 10 or more and less than 20 is denoted as A)
CC[C@H](C)[C@@H]1NC(=O)[C@H](COC)N(C)C(=O)C[C@@H](C(=O)N(C)C)N(C)C(=O)[C@H](C2CCCC2)N(C)C(=O)C2(CC(C)(C)C2)NC(=O)[C@@H]2CCCCN2C(=O)[C@H](CCc2cc(F)c(C(F)(F)F)c(F)c2)NC(=O)CN(C)C(=O)[C@H](Cc2ccc(C(F)(F)F)cc2)N2CC/C=C\C[C@@H](C2=O)N(C)C(=O)CN(C)C1=O [PP2907]	AA (a compound having 20 or more is denoted as AA)	A (a compound having 10 or more and less than 20 is denoted as A)
CCC[C@H]1C(=O)N[C@@H]([C@@H](C)CC)C(=O)N(C)CC(=O)N(C)[C@H]2C/C=C\CCN(C2=O)[C@@H](Cc2ccc(C(F)(F)F)cc2)C(=O)N(C)CC(=O)N[C@@H](CCc2ccc3c(C)cn(C)c3c2)C(=O)N2C[C@H](OCC)C[C@H]2C(=O)NC2(CC(C)(C)C2)C(=O)N(C)[C@@H](C(CC)CC)C(=O)N(C)[C@H](C(=O)N(C)C)CC(=O)N1C [PP2908]	AA (a compound having 20 or more is denoted as AA)	A (a compound having 10 or more and less than 20 is denoted as A)
C#CC[C@H]1C(=O)N[C@@H]([C@@H](C)CC)C(=O)N(C)CC(=O)N(C)[C@H]2C/C=C\CCN(C2=O)[C@@H](Cc2ccc(C(F)(F)F)cc2)C(=O)N(C)CC(=O)N[C@@H](CCc2ccc(C(F)(F)F)c(OC)c2)C(=O)N2CC[C@H]2C(=O)NC2(CC(C)(C)C2)C(=O)N(C)[C@@H](C2CCCC2)C(=O)N(C)[C@H](C(=O)N(C)C)CC(=O)N1C [PP2909]	B (a compound having 3 or more and less than 10 is denoted as B)	B (a compound having 3 or more and less than 10 is denoted as B)
CCC[C@H]1C(=O)N[C@@H]([C@@H](C)CC)C(=O)N(C)CC(=O)N(C)[C@H]2C/C=C\CCN(C2=O)[C@@H](Cc2ccc(C)cc2)C(=O)N(C)CC(=O)N[C@@H](CCc2ccc3c(C)cn(C)c3c2)C(=O)N2C[C@H](OCC)C[C@H]2C(=O)NC2(CC(C)(C)C2)C(=O)N(C)[C@@H](C(CC)CC)C(=O)N(C)[C@H](C(=O)N(C)C)CC(=O)N1C [PP2910]	AA (a compound having 20 or more is denoted as AA)	A (a compound having 10 or more and less than 20 is denoted as A)
C#CC[C@H]1C(=O)N[C@@H]([C@@H](C)CC)C(=O)N(C)CC(=O)N(C)[C@H]2C/C=C\CCN(C2=O)[C@@H](Cc2ccc(C(F)(F)F)cc2)C(=O)N(C)CC(=O)N[C@@H](CCc2ccc(C(F)(F)F)c(OC)c2)C(=O)N2CC[C@H]2C(=O)NC2(CCC2)C(=O)N(C)[C@@H](C2CCCC2)C(=O)N(C)[C@H](C(=O)N(C)C)CC(=O)N1C [PP2911]	A (a compound having 10 or more and less than 20 is denoted as A)	B (a compound having 3 or more and less than 10 is denoted as B)
CCC[C@H]1C(=O)N[C@@H]([C@@H](C)CC)C(=O)N(C)CC(=O)N(C)[C@H]2C/C=C\CCN(C2=O)[C@@H](Cc2ccc(C(F)(F)F)cc2)C(=O)N(C)CC(=O)N[C@@H](CCc2ccc3ccn(C)c3c2)C(=O)N2C[C@H](OCC)C[C@H]2C(=O)NC2(CC(C)(C)C2)C(=O)N(C)[C@@H](C(CC)CC)C(=O)N(C)[C@H](C(=O)N(C)C)CC(=O)N1C [PP2912]	AA (a compound having 20 or more is denoted as AA)	A (a compound having 10 or more and less than 20 is denoted as A)
CCCN(C)C(=O)[C@@H]1CC(=O)N(C)[C@@H](CC)C(=O)N[C@@H]([C@@H](C)CC)C(=O)N(C)CC(=O)N(C)[C@H]2C/C=C\CCN(C2=O)[C@@H](Cc2ccc(C(F)(F)F)cc2)C(=O)N(C)CC(=O)N[C@@H](CCc2cc(F)c(C(F)(F)F)c(F)c2)C(=O)N2C[C@H](OCC3CC3)C[C@H]2C(=O)NC2(CCC2)C(=O)N(C)[C@@H](C2CCCC2)C(=O)N1C [PP2913]	A (a compound having 10 or more and less than 20 is denoted as A)	A (a compound having 10 or more and less than 20 is denoted as A)
CCC[C@H]1C(=O)N[C@@H]([C@@H](C)CC)C(=O)N(C)CC(=O)N(C)[C@H]2C/C=C\CCN(C2=O)[C@@H](Cc2ccc(C)cc2)C(=O)N(C)CC(=O)N[C@@H](CCc2ccc3ccn(C)c3c2)C(=O)N2C[C@H](OCC)C[C@H]2C(=O)NC2(CC(C)(C)C2)C(=O)N(C)[C@@H](C(CC)CC)C(=O)N(C)[C@H](C(=O)N(C)C)CC(=O)N1C [PP2914]	AA (a compound having 20 or more is denoted as AA)	A (a compound having 10 or more and less than 20 is denoted as A)
CCCN(C)C(=O)[C@@H]1CC(=O)N(C)[C@@H](CC)C(=O)N[C@@H]([C@@H](C)CC)C(=O)N(C)CC(=O)N(C)[C@H]2C/C=C\CCN(C2=O)[C@@H](Cc2ccc(C(F)(F)F)cc2)C(=O)N(C)CC(=O)N[C@@H](CCc2cc(F)c(C(F)(F)F)c(F)c2)C(=O)N2CC[C@H]2C(=O)NC2(CCC2)C(=O)N(C)[C@@H](C2CCCC2)C(=O)N1C [PP2915]	A (a compound having 10 or more and less than 20 is denoted as A)	A (a compound having 10 or more and less than 20 is denoted as A)
CCC(CC)[C@H]1C(=O)N(C)[C@H](C(=O)N(C)C)CC(=O)N(C)[C@@H](COC)C(=O)N[C@@H]([C@@H](C)CC)C(=O)N(C)CC(=O)N(C)[C@H]2C/C=C\CCN(C2=O)[C@@H](Cc2ccc(C(F)(F)F)cc2)C(=O)N(C)CC(=O)N[C@@H](CCc2cc(F)c(C(F)(F)F)c(F)c2)C(=O)N2CCCC[C@H]2C(=O)NC2(CC(C)(C)C2)C(=O)N1C [PP2916]	A (a compound having 10 or more and less than 20 is denoted as A)	A (a compound having 10 or more and less than 20 is denoted as A)
CCC(CC)[C@H]1C(=O)N(C)[C@H](C(=O)N(C)C)CC(=O)N(C)[C@@H](COC)C(=O)N[C@@H]([C@@H](C)CC)C(=O)N(C)CC(=O)N(C)[C@H]2C/C=C\CCN(C2=O)[C@@H](Cc2ccc(C(F)(F)F)cc2)C(=O)N(C)CC(=O)N[C@@H](CCc2cc(F)c(C(F)(F)F)c(F)c2)C(=O)N2CCOC[C@H]2C(=O)NC2(CC(C)(C)C2)C(=O)N1C [PP2917]	AA (a compound having 20 or more is denoted as AA)	A (a compound having 10 or more and less than 20 is denoted as A)
CCC(CC)[C@H]1C(=O)N(C)[C@H](C(=O)N(C)C)CC(=O)N(C)[C@@H](COC)C(=O)N[C@@H]([C@@H](C)CC)C(=O)N(C)CC(=O)N(C)[C@H]2C/C=C\CCN(C2=O)[C@@H](Cc2ccc(C(F)(F)F)cc2)C(=O)N(C)CC(=O)N[C@@H](CCc2cc(F)c(C(F)(F)F)c(F)c2)C(=O)N2CC[C@H]2C(=O)NC2(CC(C)(C)C2)C(=O)N1C [PP2918]	AA (a compound having 20 or more is denoted as AA)	A (a compound having 10 or more and less than 20 is denoted as A)
